Measured values taken from patent US20260199484A1, “PROTAC DEGRADERS OF MLLT1 AND/OR MLLT3” (DARK BLUE THERAPEUTICS LTD, priority 2024, published 2026).

Molecular target: T1, MLLT1 (Homo sapiens, UniProt Q03111)
T1 sequence (Q03111 1-559): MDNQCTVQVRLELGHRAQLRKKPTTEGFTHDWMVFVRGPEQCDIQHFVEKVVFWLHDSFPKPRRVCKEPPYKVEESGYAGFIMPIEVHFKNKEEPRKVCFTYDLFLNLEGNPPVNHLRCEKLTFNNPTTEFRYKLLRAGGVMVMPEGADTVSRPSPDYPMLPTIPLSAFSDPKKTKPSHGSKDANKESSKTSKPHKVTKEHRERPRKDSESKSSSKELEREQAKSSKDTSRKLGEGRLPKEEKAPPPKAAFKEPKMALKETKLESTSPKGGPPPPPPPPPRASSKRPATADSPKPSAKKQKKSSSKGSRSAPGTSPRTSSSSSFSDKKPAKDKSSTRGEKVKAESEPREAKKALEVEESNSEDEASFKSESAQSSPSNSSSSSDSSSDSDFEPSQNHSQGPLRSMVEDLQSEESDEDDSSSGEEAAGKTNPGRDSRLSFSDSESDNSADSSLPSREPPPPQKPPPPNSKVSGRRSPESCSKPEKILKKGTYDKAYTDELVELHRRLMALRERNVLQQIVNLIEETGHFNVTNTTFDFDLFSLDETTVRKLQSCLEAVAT
Assay: MLLT1 degradation assay in MV4-11 cells (JESS, 24 h)
Format: cell-based
Design: endogenous in cells; host or cells: MV4-11 (ATCC CRL-9591)
Details: vs DMSO control
Protocol: MLLT1 degradation efficacy of compounds was tested in an automated chemiluminescent detection system (JESS, Cat #004-650). MV4-11 (#CRL-9591, ATCC) cells were seeded at a density of 1.2 million cells/well in a non-treated 6-well cell culture plate in 2.4 mL of complete medium (IMDM+10% FBS+1× Penicillin-Streptomycin). 10 mM DMSO stocks were prepared, and cells were treated with three concentrations of test compounds viz. 1000, 100 and 10 nM at a final DMSO concentration of 0.1% and incubated for 24 h at 37° C., 5% CO2. Post incubation, cells were centrifuged, washed with HBSS and lysed in 70 μL of RIPA buffer supplemented with Protease inhibitors (sc-24948; Santa Cruz). Subsequently, protein estimation was done using BCA protein assay kit (23225; Pierce). 4 ug protein lysate (4 uL of 1 ug/uL lysate) was loaded into each well of the JESS cartridge (SM-W001; Bio-techne) and the JESS run was performed using 1:900 dilution of anti-human MLLT1 antibody (14893; Cell signaling technology) and 1:1200 dilution of anti-human GAPDH antibody (2118; Cell signaling technology) with anti-rabbit secondary detection module (DM-001; Bio-Techne). Post run, data were analysed using “Compass for SW” software for chemiluminescent detection. The peak area for each band was used for the calculation of MLLT1 degradation with respect to DMSO control. Data is shown as “MLLT1% degradation”. • Category A: A≥75% degradation • Category B: 50%≤B<75% degradation • Category C: 25%≤C<50% degradation • Category D: D<25% degradation

MLLT1% Degradation @ 0.01 μM | MLLT1% Degradation @ 0.1 μM | MLLT1% Degradation @ 1 μM | SMILES
 | C (Category C: 25%≤C<50% degradation) | C (Category C: 25%≤C<50% degradation) | Cc1nn(CCCC2CCN(c3ccc(C(=O)NC4CCC(=O)NC4=O)cc3F)CC2)c2cc(C(=O)Nc3cc4[nH]c([C@H]5CCCN5C)cc4cn3)ccc12 (stereo partly drawn) [Example 28, 1-(3-(1-(4-((2,6-dioxopiperidin-3-yl)carbamoyl)-2-fluorophenyl)piperidin-4-yl)propyl)-3-methyl-N-(2-((R)-1-methylpyrrolidin-2-yl)-1H-pyrrolo[3,2-c]pyridin-6-yl)-1H-indazole-6-carboxamide]
D (Category D: D<25% degradation) | B (Category B: 50%≤B<75% degradation) | A (Category A: A≥75% degradation) | Cc1nn(CCCCCC#Cc2cccc(C(=O)NC3CCC(=O)NC3=O)c2F)c2cc(C(=O)Nc3cc4[nH]c([C@H]5CCCN5C)cc4cn3)ccc12 (stereo partly drawn) [Example 34, 1-(7-(3-((2,6-dioxopiperidin-3-yl)carbamoyl)-2-fluorophenyl)hept-6-yn-1-yl)-3-methyl-N-(2-((R)-1-methylpyrrolidin-2-yl)-1H-pyrrolo[3,2-c]pyridin-6-yl)-1H-indazole-6-carboxamide]
C (Category C: 25%≤C<50% degradation) | D (Category D: D<25% degradation) | B (Category B: 50%≤B<75% degradation) | Cc1c(C#CCCCCCn2nc(C)c3ccc(C(=O)Nc4cc5[nH]c([C@H]6CCCN6C)cc5cn4)cc32)cccc1C(=O)NC1CCC(=O)NC1=O (stereo partly drawn) [Example 35, 1-(7-(3-((2,6-dioxopiperidin-3-yl)carbamoyl)-2-methylphenyl)hept-6-yn-1-yl)-3-methyl-N-(2-((R)-1-methylpyrrolidin-2-yl)-1H-pyrrolo[3,2-c]pyridin-6-yl)-1H-indazole-6-carboxamide]

Second part, the compound before the results:

SMILES | MLLT1% Degradation @ 0.01 μM | MLLT1% Degradation @ 0.1 μM | MLLT1% Degradation @ 1 μM
Cc1c(OCCCCCCn2nc(C)c3ccc(C(=O)Nc4cc5[nH]c([C@H]6CCCN6C)cc5cn4)cc32)cccc1N1CCC(=O)NC1=O [Example 10, 1-{6-[3-(2,4-dioxo-1,3-diazinan-1-yl)-2-methylphenoxy]hexyl}-3-methyl-N-{2-[(2R)-1-methylpyrrolidin-2-yl]-1H-pyrrolo[3,2-c]pyridin-6-yl}indazole-6-carboxamide] | C (Category C: 25%≤C<50% degradation) | C (Category C: 25%≤C<50% degradation) | C (Category C: 25%≤C<50% degradation)
Cc1nn(CCCCN2CCN(c3ccc4c(c3)C(=O)N(C3CCC(=O)NC3=O)C4=O)CC2)c2cc(C(=O)Nc3cc4[nH]c([C@@H]5CCCN5C)cc4cn3)ccc12 (stereo partly drawn) [Example 20, 1-(4-{4-[2-(2,6-dioxopiperidin-3-yl)-1,3-dioxoisoindol-5-yl]piperazin-1-yl}butyl)-3-methyl-N-{2-[(2S)-1-methylpyrrolidin-2-yl]-1H-pyrrolo[3,2-c]pyridin-6-yl}indazole-6-carboxamide] | C (Category C: 25%≤C<50% degradation) | C (Category C: 25%≤C<50% degradation) | A (Category A: A≥75% degradation)
Cc1nn(CCOCCN2CCN(c3cc4c(cc3F)C(=O)N(C3CCC(=O)NC3=O)C4=O)CC2)c2cc(C(=O)Nc3cc4[nH]c([C@H]5CCCN5C)cc4cn3)ccc12 (stereo partly drawn) [Example 24, 1-(2-(2-(4-(2-(2,6-dioxopiperidin-3-yl)-6-fluoro-1,3-dioxoisoindolin-5-yl)piperazin-1-yl)ethoxy)ethyl)-3-methyl-N-(2-((R)-1-methylpyrrolidin-2-yl)-1H-pyrrolo[3,2-c]pyridin-6-yl)-1H-indazole-6-carboxamide] |  | B (Category B: 50%≤B<75% degradation) | A (Category A: A≥75% degradation)
